In PMC6416077 (Journal of the American Chemical Society, 2019):

Molecular target: T1, HsOMT (Hpm5) (Hypomyces subiculosus, UniProt B3FWS1)
T1 sequence (B3FWS1 1-398): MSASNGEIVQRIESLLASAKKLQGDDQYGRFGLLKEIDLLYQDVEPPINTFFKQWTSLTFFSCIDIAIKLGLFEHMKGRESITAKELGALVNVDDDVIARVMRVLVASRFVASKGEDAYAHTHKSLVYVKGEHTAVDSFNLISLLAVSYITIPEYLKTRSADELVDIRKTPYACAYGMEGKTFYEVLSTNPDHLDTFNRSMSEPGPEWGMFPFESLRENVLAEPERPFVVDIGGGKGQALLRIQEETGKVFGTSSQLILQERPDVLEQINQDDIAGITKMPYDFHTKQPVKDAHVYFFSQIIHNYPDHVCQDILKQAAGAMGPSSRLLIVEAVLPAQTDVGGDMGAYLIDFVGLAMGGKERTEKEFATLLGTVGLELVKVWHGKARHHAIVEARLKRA
Assay: biocatalytic O-methylation in S. cerevisiae expressing HsOMT, LC-MS
Type: cell-based
Conditions: native substrate; OH-5 (para) methylation to 5-O-methyl-DHZ

## C[C@H]1C/C=C/[C@@H](O)CCC/C=C/c2cc(O)cc(O)c2C(=O)O1 [compound 3, DHZ]
  biocatalytic O-methylation in S. cerevisiae expressing HsOMT, LC-MS: methylates the C-5 phenolic hydroxyl of the RAL14
